Results on 3 compounds are retold here after publication doi:10.1101/2025.10.31.685773v1 (biorxiv, 2025).

For series [1], the target named is T1, ADLP (Thermus thermophilus, UniProt Q72IQ0).
T1 sequence (Q72IQ0 1-345): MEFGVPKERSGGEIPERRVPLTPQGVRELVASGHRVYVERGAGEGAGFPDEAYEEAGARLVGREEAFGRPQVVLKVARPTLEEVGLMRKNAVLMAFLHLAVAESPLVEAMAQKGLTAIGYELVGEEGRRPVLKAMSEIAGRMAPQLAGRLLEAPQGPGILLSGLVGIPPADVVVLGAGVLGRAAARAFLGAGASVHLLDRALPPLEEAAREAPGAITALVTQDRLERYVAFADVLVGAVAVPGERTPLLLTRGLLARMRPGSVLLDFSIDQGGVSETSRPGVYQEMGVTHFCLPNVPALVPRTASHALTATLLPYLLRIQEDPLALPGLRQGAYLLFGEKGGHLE
Briefly: isothermal titration calorimetry. Type of series: binding.

For series [2], the target named is TtCoAT·ADLP complex (NAD(H) site in ADLP) (Thermus thermophilus, UniProt Q72IQ0). As to the kind of experiment: isothermal titration calorimetry. In kind it is binding. A general note: In ITC the heat of successive injections is recorded.
The test system of series [3] is CCCC(=O)SCCNC(=O)CCNC(=O)[C@H](O)C(C)(C)COP(=O)(O)OP(=O)(O)OC[C@H]1O[C@@H](n2cnc3c(N)ncnc32)[C@H](O)[C@@H]1OP(=O)(O)O. Briefly: purified protein. The conditions noted are these: 100 mM acetate as co-substrate, pH 7.5, no NAD+.

`NC(=O)C1=CN([C@@H]2O[C@H](COP(=O)(O)OP(=O)(O)OC[C@H]3O[C@@H](n4cnc5c(N)ncnc54)[C@H](O)[C@@H]3O)[C@@H](O)[C@H]2O)C=CC1` [NADH]: the Kd (in general, the equilibrium constant for the complex coming apart) in series [1] came out at 0.22 µM; in series [2], 0.34 ± 0.051 µM. Regarding `NC(=O)c1ccc[n+]([C@@H]2O[C@H](COP(=O)(O)OP(=O)(O)OC[C@H]3O[C@@H](n4cnc5c(N)ncnc54)[C@H](O)[C@@H]3O)[C@@H](O)[C@H]2O)c1` [NAD^+], the Kd was determined as 9.1 µM in series [1] and 3.1 ± 0.33 µM in series [2]. In the case of “TtCoAT·ADLP (CoA transferase site) (Thermus thermophilus HB27)”, the Michaelis-Menten constant (Km) (commonly the concentration of substrate that gives half-maximal velocity) in series [3] came to 33.1 ± 2.8 µM.
